According to ChEMBL document CHEMBL1138572, “The synthesis of N-phenoxyethyl-1-substituted-1,2,3,4-tetrahydroisoquinolines and their alpha1-adrenoceptor blocking activity” (Eur J Med Chem, 2009):

Biological target: T1, Adrenergic receptor alpha-1 (Rattus norvegicus, UniProt P15823+P23944+P43140)
T1 sequence (P15823 whole entry): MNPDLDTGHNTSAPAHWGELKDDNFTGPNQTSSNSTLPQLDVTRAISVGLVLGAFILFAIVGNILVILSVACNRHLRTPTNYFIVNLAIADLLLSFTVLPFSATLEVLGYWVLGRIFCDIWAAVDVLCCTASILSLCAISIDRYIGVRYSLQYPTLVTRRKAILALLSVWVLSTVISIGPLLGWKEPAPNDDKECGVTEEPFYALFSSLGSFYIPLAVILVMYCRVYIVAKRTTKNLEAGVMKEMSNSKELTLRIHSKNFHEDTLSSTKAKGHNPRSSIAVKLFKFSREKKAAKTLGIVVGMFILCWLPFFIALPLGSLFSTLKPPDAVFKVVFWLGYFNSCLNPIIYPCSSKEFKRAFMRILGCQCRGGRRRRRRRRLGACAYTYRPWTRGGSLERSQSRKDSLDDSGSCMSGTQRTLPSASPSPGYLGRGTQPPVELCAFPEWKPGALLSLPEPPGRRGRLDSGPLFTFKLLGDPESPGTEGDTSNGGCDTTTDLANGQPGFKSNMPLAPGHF
T1 sequence (P23944 whole entry): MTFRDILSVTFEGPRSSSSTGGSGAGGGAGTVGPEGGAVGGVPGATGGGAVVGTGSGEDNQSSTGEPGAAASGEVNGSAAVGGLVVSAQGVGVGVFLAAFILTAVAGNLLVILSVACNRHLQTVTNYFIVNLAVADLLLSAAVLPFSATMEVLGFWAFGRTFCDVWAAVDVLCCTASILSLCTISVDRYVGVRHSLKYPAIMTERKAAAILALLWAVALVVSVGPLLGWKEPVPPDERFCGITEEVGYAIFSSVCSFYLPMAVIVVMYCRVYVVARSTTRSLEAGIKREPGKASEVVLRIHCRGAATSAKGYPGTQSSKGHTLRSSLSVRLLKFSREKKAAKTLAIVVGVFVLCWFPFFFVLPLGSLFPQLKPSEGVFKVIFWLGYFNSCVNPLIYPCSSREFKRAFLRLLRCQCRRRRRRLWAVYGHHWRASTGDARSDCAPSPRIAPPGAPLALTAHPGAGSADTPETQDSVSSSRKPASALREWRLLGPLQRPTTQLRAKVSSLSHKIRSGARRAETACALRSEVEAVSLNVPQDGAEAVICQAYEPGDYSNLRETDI
T1 sequence (P43140 whole entry): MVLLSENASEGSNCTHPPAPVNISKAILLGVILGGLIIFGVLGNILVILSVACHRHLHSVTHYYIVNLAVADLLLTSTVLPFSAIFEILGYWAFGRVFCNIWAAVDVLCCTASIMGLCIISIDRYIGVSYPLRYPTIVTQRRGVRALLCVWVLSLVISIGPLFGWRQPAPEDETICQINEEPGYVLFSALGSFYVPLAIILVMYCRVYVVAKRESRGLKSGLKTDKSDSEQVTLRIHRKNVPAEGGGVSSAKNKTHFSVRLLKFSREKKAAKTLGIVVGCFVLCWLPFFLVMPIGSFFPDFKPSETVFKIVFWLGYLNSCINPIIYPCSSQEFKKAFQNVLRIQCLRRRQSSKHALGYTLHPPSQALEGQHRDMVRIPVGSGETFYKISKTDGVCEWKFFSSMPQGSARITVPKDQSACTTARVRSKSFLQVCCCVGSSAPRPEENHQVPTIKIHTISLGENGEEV
Assay: Antagonist activity at alpha1 adrenoceptor in Sprague-Dawley rat aorta assessed as inhibition of norepinephrine-induced contraction treated 30 mins before norepinephrine challenge

Structure (SMILES)	pA2
Nc1ccccc1C1c2ccccc2CCN1CCOc1ccccc1 (stereo not drawn)	5.46
COc1ccc2c(c1)C(c1ccccc1NCCOc1ccccc1)N(CCOc1ccccc1)CC2 (stereo not drawn)	6.72
COc1cc2c(cc1OC)C(Cc1ccccc1)N(CCOc1ccccc1)CC2 (stereo not drawn)	8.23
c1ccc(OCCNc2ccccc2C2c3ccccc3CCN2CCOc2ccccc2)cc1 (stereo not drawn)	7.71
COc1ccc2c(c1)C(c1ccccc1[N+](=O)[O-])N(CCOc1ccccc1)CC2 (stereo not drawn)	8.11
COc1cc2c(cc1OC)C(c1ccccc1[N+](=O)[O-])N(CCOc1ccccc1)CC2 (stereo not drawn)	9.01
COc1ccc2c(c1)C(c1ccccc1N)N(CCOc1ccccc1)CC2 (stereo not drawn)	7.36
COc1ccc(NCCOc2ccccc2)c(C2c3cc(OC)c(OC)cc3CCN2CCOc2ccccc2)c1 (stereo not drawn)	8.34
COc1ccc(N)c(C2c3cc(OC)c(OC)cc3CCN2CCOc2ccccc2)c1 (stereo not drawn)	7.51
COc1cc2c(cc1OC)C(c1ccccc1N)N(CCOc1ccccc1)CC2 (stereo not drawn)	7.66
COc1ccc([N+](=O)[O-])c(C2c3cc(OC)c(OC)cc3CCN2CCOc2ccccc2)c1 (stereo not drawn)	8.46
COc1cc2c(cc1OC)C(c1ccccc1NCCOc1ccccc1)N(CCOc1ccccc1)CC2 (stereo not drawn)	8.33
O=[N+]([O-])c1ccccc1C1c2ccccc2CCN1CCOc1ccccc1 (stereo not drawn)	7.94
